From patent publication US20200261409A1, “METHODS FOR PAIN TREATMENT USING RESINIFERATOXIN” (priority 2015, published 2020)
“Also recorded” adds a separate entry of the source.

Assays:
[1] = tested on: swine with gait asymmetry due to chronic knee pain induced by unilateral ACLT; assay: Blinded behavioral assessment of the limp in the ACLT knee osteoarthritis model; type: in vivo, Yucatan miniature swine
Procedure: (§1) The study was approved by the Institutional Animal Care and Use Committee of the Mayo Clinic. Female Yucatan miniature swine (Exemplar Genetics, Sioux Center, Iowa, USA) weighing 25-45 kg at the time of RTX administration were used. For both procedures (i.e., ACLT and PG-ED injection), the pigs were anesthetized by intramuscular injection of Telazol (tiletamine and zolazepam, 5 mg/kg; Fort Dodge Animal Health, Fort Dodge, Iowa, USA), xylazine (2 mg/kg; Akorn, Decatur, Ill., USA), and glycopyrrolate (0.01 mg/kg; Baxter Healthcare, Deerfield, Ill., USA), followed by endotracheal intubation and anesthesia maintenance with 1.5%-2% isoflurane (Piramal Healthcare, Bethlehem, Pa., USA). For antibiotic prophylaxis, the animals were given a single dose of intramuscular ceftiofur (5 mg/kg; Pfizer, New York, N.Y., USA). For postoperative analgesia, the animals received a single dose of slow release buprenorphine (0.18 mg/kg; Wildlife Pharmaceuticals, Windsor, Colo., USA) intramuscularly and then oral carprofen (3 mg/kg; Pfizer Animal Health, New York, N.Y., USA) as needed for the first three postoperative days. For CTF guided PG-ED injection of RTX, a clinical CT scanner (Definition DS, Siemens Healthcare) with interventional CTF hardware and software packages was used. A full CT scan of the lumbosacral 13 spine was first performed to visualize the spinal anatomy and to identify the optimal access routes to the targeted PG-ED segments. The CT scanner acquisition settings were the same as reported previously (J. Pleticha, et al., Pig lumbar spine anatomy and imaging-guided lateral lumbar puncture: A new large animal model for intrathecal drug delivery, J. Neurosci. Methods 216, 10-15 (2013)). Next, a 22 G, 6″ spinal needle with Quincke tip (Kimberly-Clark, Roswell, Ga., USA) was advanced to the PG-ED space following the predetermined trajectory. […]

[2] = tested on: sP+ axons in the dorsal horn of the spinal cord; assay: Substance P (sP) immunohistochemistry of the spinal cord after PG-ED injection; type: in vivo, Yucatan miniature swine
Procedure: as §1

rats = settings: subcutaneous and epidural administration; cited from earlier work
[3] = tested on: other neuronal populations in the spinal cord (NeuN; primary motor neurons); assay: Neuronal nuclei (NeuN) staining of the spinal cord after PG-ED injection; type: in vivo, Yucatan miniature swine; settings: PG-ED injection of RTX; FIGS. 3A-3D
Procedure: as §1, with “used.” for “used. A full CT scan of the lumbosacral 13 spine was first performed to visualize the spinal anatomy and to identify the optimal access routes to the targeted PG-ED segments. The CT scanner acquisition settings were the same as reported previously (J. Pleticha, et al., Pig lumbar spine anatomy and imaging-guided lateral lumbar puncture: A new large animal model for intrathecal drug delivery, J. Neurosci. Methods 216, 10-15 (2013)). Next, a 22 G, 6″ spinal needle with Quincke tip (Kimberly-Clark, Roswell, Ga., USA) was advanced to the PG-ED space following the predetermined trajectory.”

Structure (SMILES) | limp / gait asymmetry, before vs after injection (blinded observers) ([1]; ACLT pigs, n=3 RTX, PG-ED at ipsilateral L4, L5, 51, and S2, 3-5 weeks after administration, sign test p<0.02) | clinically observed pain-related behavior (blinded observer) ([1]; Example 7, pigs with knee osteoarthritis, n=8, PG-ED, p=0.03) | sP+ axonal terminals in the dorsal horn at injected spinal levels, ACLT animals ([2]; ACLT pigs, n=3 RTX, PG-ED at ipsilateral L4, L5, 51, and S2, FIGS. 4A-4F) | RTX dosed animals with low/none sP histology (blinded observer) ([2]; Example 7, second group of pigs, PG-ED, doses of 1.5 μg and 5 μg, P=0.002) | sP+ axons/fibers in the dorsal horn of the spinal cord at the injected levels ([2]; PG-ED injection, 5 μg RTX in 500 μl diluent per spinal level, blinded analysis, n=10 animals in study, sign test p<0.001) | thermal analgesia, time without restoration of pain sensitivity (rats) | NeuN staining (spinal cord neurons, motor neurons of the anterior horn) [3] | weight-bearing asymmetry ([1]; ACLT pigs, intramuscular, unblinded observations)
C=C(C)[C@]12C[C@@H](C)[C@@]34OC(Cc5ccccc5)(O[C@@H]1[C@@H]3C=C(COC(=O)Cc1ccc(O)c(OC)c1)C[C@]1(O)C(=O)C(C)=C[C@@H]41)O2 [RTX] | improvements in symmetric weight bearing; also recorded: improvement of limp in all animals; also recorded: all animals receiving RTX improved; also recorded: significant reversal of gait asymmetry | improved | complete loss of sP+ fibers; also recorded: complete loss of the sP+ axonal terminals | 6 of 6 | no sP staining; also recorded: complete loss of sP+ axons | over 7 days | unaffected; also recorded: not affected | –
CN1CC[C@]23c4c5ccc(O)c4O[C@H]2[C@@H](O)C=C[C@H]3[C@H]1C5 [morphine] | – | – | – | – | – | – | – | diminished weight-bearing asymmetry
